# Laboratory results from patent US6355799B1, “Substituted benzene compounds, process for their preparation, and herbicidal and defoliant compositions containing them” (ISK Americas Incorporated, priority 1997, dated 2002).
# Where two headings read alike, the source gives them in different places.
# What was measured:
# Assay type in all cases: in vivo
# [1] = tested on: redroot pigweed (Amaranthus retroflexus, AMARE); assay: Pre-emerge test, greenhouse herbicide activity screening; settings: pre-emerge; for pest or weed control at 63 g/ha / pest or weed control at 250 g/ha: Amaranthus retroflexus, pre-emergence, 336 h, phytotoxicity rating 0-100 at 14 days after application, read-out: Pre-emerge Herbicidal Activity AMARE; for pest or weed control at 63 g/ha: rate 63 g ai/ha; for pest or weed control at 250 g/ha: rate 250 g ai/ha; for Pre-emerge Herbicidal Activity AMARE (phytotoxicity rating, scale 0-100): rated 14 days after application, 0 = no damage, 100 = complete death
# Procedure, shortened: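 Compounds in acetone were track-sprayed at 187 l/ha, 15–1000 g ai/ha, onto sandy loam pots. Pre-emerge seeds were sown one day before spraying, with surface watering afterwards. Post-emerge plants were at the 2–3 leaf stage and sprayed with 0.25% v/v non-ionic surfactant. Injury was rated 0–100 at 14 days.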
# [2] = tested on: sicklepod (Cassia obtusifolia, CASOB); assay: as above; settings: pre-emerge; for pest or weed control at 63 g/ha / pest or weed control at 250 g/ha: Senna obtusifolia, pre-emergence, 336 h, phytotoxicity rating 0-100 at 14 days after application, read-out: Pre-emerge Herbicidal Activity CASOB; for pest or weed control at 63 g/ha: rate 63 g ai/ha; for pest or weed control at 250 g/ha: rate 250 g ai/ha; for Pre-emerge Herbicidal Activity CASOB (phytotoxicity rating, scale 0-100): rated 14 days after application, 0 = no damage, 100 = complete death
# Procedure, shortened: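 Sandy loam pots; pre-emerge: sown 1 d pre-spray, surface-watered after, then bottom-watered. Post-emerge: sown 8–21 d before, 2–3 leaf stage, + 0.25% v/v NIS, bottom-watered. Acetone, 187 l/ha track spray, 15–1000 g ai/ha. 0–100 injury score, day 14.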
# [3] = tested on: barnyardgrass (Echinochloa crus-galli, ECHCG); assay: Post-emerge test, greenhouse herbicide activity screening; settings: Echinochloa crus-galli, post-emergence, 336 h, read-out: Post-emerge Herbicidal Activity ECHCG; for pest or weed control at 63 g/ha: 63 g ai/ha; for pest or weed control at 250 g/ha: 250 g ai/ha
# Procedure, shortened: (§1)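 Applied at 15–1000 g ai/ha from acetone in 187 l/ha spray volume. Post-emergence applications included 0.25% v/v non-ionic surfactant and reached plants sown 8–21 days before. Pre-emergence applications were incorporated by surface watering. Efficacy or crop damage was rated on a 0–100 scale after 14 days.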
# [4] = tested on: green foxtail (Setaria viridis, SETVI); assay: as above; settings: Setaria viridis, post-emergence, 336 h, read-out: Post-emerge Herbicidal Activity SETVI; for pest or weed control at 63 g/ha: 63 g ai/ha; for pest or weed control at 250 g/ha: 250 g ai/ha
# Procedure, shortened: as §1
# [5] = tested on: ivyleaf morningglory (Ipomoea hederacea, IPOHE); assay: as above; settings: Ipomoea, post-emergence, 336 h, read-out: Post-emerge Herbicidal Activity IPOHE; for pest or weed control at 63 g/ha: 63 g ai/ha; for pest or weed control at 250 g/ha: 250 g ai/ha
# Procedure, shortened: as §1
# [6] = tested on: johnsongrass (Sorghum halepense, SORHA); assay: as above; settings: Sorghum halepense, post-emergence, 336 h, read-out: Post-emerge Herbicidal Activity SORHA; for pest or weed control at 63 g/ha: 63 g ai/ha; for pest or weed control at 250 g/ha: 250 g ai/ha
# Procedure, shortened: as §1
# [7] = tested on: lambsquarters (Chenopodium album, CHEAL); assay: as above; settings: Chenopodium album, post-emergence, 336 h, read-out: Post-emerge Herbicidal Activity CHEAL; for pest or weed control at 63 g/ha: 63 g ai/ha; for pest or weed control at 250 g/ha: 250 g ai/ha
# Procedure, shortened: as §1
# [8] = tested on: large crabgrass (Digitaria sanguinalis, DIGSA); assay: as above; settings: Digitaria sanguinalis, post-emergence, 336 h, read-out: Post-emerge Herbicidal Activity DIGSA; for pest or weed control at 63 g/ha: 63 g ai/ha; for pest or weed control at 250 g/ha: 250 g ai/ha
# Procedure, shortened: as §1
# [9] = tested on: redroot pigweed (Amaranthus retroflexus, AMARE); assay: as above; settings: Amaranthus retroflexus, post-emergence, 336 h, read-out: Post-emerge Herbicidal Activity AMARE; for pest or weed control at 63 g/ha: 63 g ai/ha; for pest or weed control at 250 g/ha: 250 g ai/ha
# Procedure, shortened: as §1
# [10] = tested on: sicklepod (Cassia obtusifolia, CASOB); assay: as above; settings: Senna obtusifolia, post-emergence, 336 h, post-emerge, phytotoxicity rating 0-100 at 14 days after application, read-out: Post-emerge Herbicidal Activity CASOB; for pest or weed control at 63 g/ha: 63 g ai/ha; for pest or weed control at 250 g/ha: 250 g ai/ha
# Procedure, shortened: as §1
# [11] = tested on: velvetleaf (Abutilon theophrasti, ABUTH); assay: as above; settings: Abutilon theophrasti, post-emergence, 336 h, read-out: Post-emerge Herbicidal Activity ABUTH; for pest or weed control at 63 g/ha: 63 g ai/ha; for pest or weed control at 250 g/ha: 250 g ai/ha
# Procedure, shortened: as §1
# [12] = post-emerge, phytotoxicity rating 0-100 at 14 days after application
# [13] = phytotoxicity rating 0-100 (0 no damage, 100 complete death), 14 days after application
SMILES,pest or weed control at 63 g/ha [1],pest or weed control at 250 g/ha [1],pest or weed control at 63 g/ha [2],pest or weed control at 250 g/ha [2],"pest or weed control at 63 g/ha [3, 12]","pest or weed control at 250 g/ha [3, 12]","pest or weed control at 63 g/ha [4, 12]","pest or weed control at 250 g/ha [4, 12]","pest or weed control at 63 g/ha [5, 12]","pest or weed control at 250 g/ha [5, 12]","pest or weed control at 63 g/ha [6, 12]","pest or weed control at 250 g/ha [6, 12]","pest or weed control at 63 g/ha [7, 12]","pest or weed control at 250 g/ha [7, 12]","pest or weed control at 63 g/ha [8, 12]","pest or weed control at 250 g/ha [8, 12]","pest or weed control at 63 g/ha [9, 12]","pest or weed control at 250 g/ha [9, 12]",pest or weed control at 63 g/ha [10],pest or weed control at 250 g/ha [10],further results
Cc1nn(-c2c(N)cc(Cl)cc2F)c(=O)n1C(F)F [Compound 6-22],30%,100%,0%,60%,0%,0%,0%,0%,20%,70%,0%,0%,50%,70%,0%,0%,70%,100%,0%,0%,"pest or weed control at 63 g/ha [11, 12]: 60%; pest or weed control at 250 g/ha [11, 12]: 80%"
"CC(C)Oc1c(Cl)cc(F)c(-n2nnn(CCCF)c2=O)c1N [Compound 5-18, 1-(2-amino-4-chloro-6-fluoro-3-isopropyloxyphenyl)-4-(3fluoropropyl)-1,4-dihydro-5-oxo-5H-tetrazole]",30%,0%,0%,10%,0%,0%,0%,0%,0%,0%,0%,0%,10%,10%,0%,0%,0%,10%,0%,0%,"pest or weed control at 63 g/ha [11, 12]: 70%; pest or weed control at 250 g/ha [11, 12]: 70%"
"COc1c(Cl)cc(F)c(-n2c(=O)cc(C(F)(F)F)n(C)c2=O)c1N(C(C)=O)C(C)=O [Compound 2-2, 3-(4-chloro-2-diacetylamino-6-fluoro-3-methoxyphenyl)-1-methyl-6-trifluoromethyl-2,4(1H, 3H)-pyrimidinedione]",–,–,–,–,–,–,–,–,–,–,–,–,–,–,–,–,–,–,–,–,"Pre-emerge Herbicidal Activity AMARE (phytotoxicity rating, scale 0-100) ([1]; 63 g ai/ha): 100; Pre-emerge Herbicidal Activity AMARE (phytotoxicity rating, scale 0-100) ([1]; 250 g ai/ha): 100; Pre-emerge Herbicidal Activity CASOB (phytotoxicity rating, scale 0-100) ([2]; 63 g ai/ha): 60; Pre-emerge Herbicidal Activity CASOB (phytotoxicity rating, scale 0-100) ([2]; 250 g ai/ha): 90; pest or weed control at 63 g/ha [3, 13]: 0%; pest or weed control at 250 g/ha [3, 13]: 40%; pest or weed control at 63 g/ha [4, 13]: 0%; pest or weed control at 250 g/ha [4, 13]: 30%; pest or weed control at 63 g/ha [5, 13]: 95%; pest or weed control at 250 g/ha [5, 13]: 100%; pest or weed control at 63 g/ha [6, 13]: 0%; pest or weed control at 250 g/ha [6, 13]: 50%; pest or weed control at 63 g/ha [7, 13]: 60%; pest or weed control at 250 g/ha [7, 13]: 100%; pest or weed control at 63 g/ha [8, 13]: 0%; pest or weed control at 250 g/ha [8, 13]: 30%; pest or weed control at 63 g/ha [9, 13]: 90%; pest or weed control at 250 g/ha [9, 13]: 100%; pest or weed control at 63 g/ha [11, 13]: 95%; pest or weed control at 250 g/ha [11, 13]: 100%"
